Data as given in ChEMBL document CHEMBL1157189, “S-Ribosylhomocysteine analogues with the carbon-5 and sulfur atoms replaced by a vinyl or (fluoro)vinyl unit” (Bioorg Med Chem, 2008).

System: Bacillus subtilis
Test: Inhibition of CO2+ substituted Bacillus subtilis S-ribosyl-homocysteinase

Ki: 96 µM
SMILES: O[C@@H]1C[C@@H](/C=C/F)O[C@@H]1O (mixture of isomers)
